Entries after “also recorded” stand apart in the source; their conditions may differ. Where two headings read alike, the source gives them in different places.
How the values were obtained:
growth hormone secretion = test: GHRP induced growth hormone secretion, intravenous administration (Rat IV); assay type: in vivo
How it was run: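 Female Sprague Dawley rats (24-30 days, 50-90 g) under intraperitoneal pentobarbitone received graded intravenous tail-vein peptide doses in pH 5.0 sodium acetate/mannitol buffer 20 min post-anaesthesia. Blood by cardiac puncture 10 min after dosing; serum GH measured by rat GH ELISA in duplicate.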

rat pituitary cells = rat pituitary cells (Rattus norvegicus, UniProt O08725)
rat pituitary cells, sequence (O08725 whole entry): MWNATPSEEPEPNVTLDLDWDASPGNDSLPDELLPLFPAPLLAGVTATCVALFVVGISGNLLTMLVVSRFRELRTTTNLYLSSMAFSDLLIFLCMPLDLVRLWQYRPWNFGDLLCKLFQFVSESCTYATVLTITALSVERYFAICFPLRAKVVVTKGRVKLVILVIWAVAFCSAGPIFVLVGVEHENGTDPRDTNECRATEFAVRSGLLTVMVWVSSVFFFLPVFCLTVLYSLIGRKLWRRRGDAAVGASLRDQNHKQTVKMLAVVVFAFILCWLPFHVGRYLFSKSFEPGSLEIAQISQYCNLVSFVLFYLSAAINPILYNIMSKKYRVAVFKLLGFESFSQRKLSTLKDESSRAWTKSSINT
How it was run: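 Primary rat anterior pituitary cells, cultured three days in DME low glucose/10% FBS, were washed, pre-incubated twice for 15 min, then challenged 15 min with test compounds (DMSO ≤0.1%) at 37 °C. Released GH was measured by two-site ELISA; EC50 came from 4-parameter fits, mean of three to four independent determinations.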

[1] = GHRP induced dose dependent weight gain in rats (sc minipump infusion, 14 days); assay type: in vivo, rat
Description: Rat GHRH (1-43) was dissolved in the same buffer at 25 g/l.
The next day these osmotic pumps were inserted into rats.
Serum chemistries were measured by standard automated procedures.

[2] = high dose (inip) b b F K-NH2 100 μg/day, GHRH 600 μg/day, 14 d infusion

Compound: NCCCC[C@H](NC(=O)[C@H](Cc1ccccc1)NC(=O)[C@@H](Cc1ccc2ccccc2c1)NC(=O)[C@@H](Cc1ccc2ccccc2c1)NC(=O)C1CCNCC1)C(N)=O [(inip) b b F K amide, (inip)-DβNal-DβNal-Phe-Lys-amide]
- RAT IV ED50 (growth hormone secretion; Table III, iv injection, serum GH 10 min after injection): 0.2 µg
- ED50 for induction of GH secretion (growth hormone secretion; acute intravenous injection, 80 gram rats, doses 1.0, 0.2, 0.04 μg/injection): 0.2 μg/rat
- concentration at which GH release is significantly (P<0.05) increased (rat pituitary cells; 15 min exposure): 0.3 nM
- concentration by which GH release reaches a plateau (rat pituitary cells; 15 min exposure): 1 nM
- fold more potent than GHRP-6 (rat pituitary cells; ratio of pit cell EC50s): over 30 fold
- EC50 (rat pituitary cells; read-out: EC50 of the representative GH dose response, single representative experiment, 15 min exposure): 0.16 nM
- EC50 (rat pituitary cells; read-out: mean EC50, mean ± SE of independent EC50s): 0.18 ± 0.04 nM
- epiphyseal plate width ([1]; 14 d infusion): no statistically significant increase
- pituitary and kidney weight ([1]; 14 d infusion): not affected
- heart weight compared to excipient ([1]; high dose 100 μg/day, GHRH 600 μg/day): tended to be increased
- liver weight ([1]; high dose (100 μg/day), 14 d infusion): 10.14 ± 0.29 g
- spleen weight [1, 2]: 628 ± 26 mg
- thymus weight [1, 2]: 584 ± 34 mg
- liver weight ([1]; low dose (4 μg/day), 14 d infusion): 9.40 ± 0.37 g
- liver weight ([1]; medium dose (20 μg/day), 14 d infusion): 9.70 ± 0.29 g
- body weight gain compared to excipient ([1]; sc minipump 14 days, (inip) b b F K-NH2 4, 20, 100 μg/d, GHRH 600 μg/d, 90 day old female rats): dose-related weight gain; also recorded: significant body weight and organ weight gain
